Legend:
[1] = system: CCRF-CEM; assay: NCI SRB assay; assay type: cell-based, human
[2] = system: K-562; assay: NCI SRB assay; assay type: cell-based, human
[3] = system: MOLT-4; assay: NCI SRB assay; assay type: cell-based, human
[4] = system: EKVX; assay: NCI SRB assay; assay type: cell-based, human
[5] = system: HOP-62; assay: NCI SRB assay; assay type: cell-based, human
[6] = system: NCI-H226; assay: NCI SRB assay; assay type: cell-based, human
[7] = system: NCI-H23; assay: NCI SRB assay; assay type: cell-based, human
[8] = system: NCI-H322M; assay: NCI SRB assay; assay type: cell-based, human
[9] = system: NCI-H460; assay: NCI SRB assay; assay type: cell-based, human
[10] = system: HCT-116; assay: NCI SRB assay; assay type: cell-based, human
[11] = system: HT29; assay: NCI SRB assay; assay type: cell-based, human
[12] = system: KM12; assay: NCI SRB assay; assay type: cell-based, human
[13] = system: SF-268; assay: NCI SRB assay; assay type: cell-based, human
[14] = system: SF-295; assay: NCI SRB assay; assay type: cell-based, human
[15] = system: SNB-19; assay: NCI SRB assay; assay type: cell-based, human
[16] = system: SNB-75; assay: NCI SRB assay; assay type: cell-based, human
[17] = system: LOX IMVI; assay: NCI SRB assay; assay type: cell-based, human
[18] = system: SK-MEL-2; assay: NCI SRB assay; assay type: cell-based, human
[19] = system: OVCAR-4; assay: NCI SRB assay; assay type: cell-based, human
[20] = system: OVCAR-8; assay: NCI SRB assay; assay type: cell-based, human
[21] = system: SK-OV-3; assay: NCI SRB assay; assay type: cell-based, human
[22] = system: 786-0; assay: NCI SRB assay; assay type: cell-based, human
[23] = system: ACHN; assay: NCI SRB assay; assay type: cell-based, human
[24] = system: SN12C; assay: NCI SRB assay; assay type: cell-based, human; conditions: SN12C
[25] = system: TK-10; assay: NCI SRB assay; assay type: cell-based, human
[26] = system: MCF7; assay: NCI SRB assay; assay type: cell-based, human
[27] = system: BT-549; assay: NCI SRB assay; assay type: cell-based, human
[28] = system: T-47D; assay: NCI SRB assay; assay type: cell-based, human
[29] = system: 59 human cancer cell lines representing nine tumour subpanels; assay: NCI SRB assay, panel and subpanel summaries; conditions: all cell lines

## Cc1ccc(-c2nc(Nc3ccc(C(=O)O)cc3)c3ccccc3n2)cc1 [8b, 4-((2-(p-Tolyl)quinazolin-4-yl)amino)benzoic acid]
[1]; 10 μM
  GI%: 28%
[1]; 1.00E-5 Molar
  Growth Percent: 71.96%
[2]; K-562, 10 μM
  GI%: 23%
[2]; K-562, 1.00E-5 Molar
  Growth Percent: 76.80%
[3]; MOLT-4, 10 μM
  GI%: 24%
[3]; MOLT-4, 1.00E-5 Molar
  Growth Percent: 76.42%
[4]; 10 μM
  GI%: 28%
[4]; 1.00E-5 Molar
  Growth Percent: 72.41%
[5]; HOP-62, 10 μM
  GI%: – (Only GI% higher than 20% are shown)
[5]; HOP-62, 1.00E-5 Molar
  Growth Percent: 88.98%
[6]; NCI-H226, 10 μM
  GI%: 62%
[6]; NCI-H226, 1.00E-5 Molar
  Growth Percent: 37.77%
[7]; NCI-H23, 10 μM
  GI%: – (Only GI% higher than 20% are shown)
[7]; NCI-H23, 1.00E-5 Molar
  Growth Percent: 87.14%
[8]; 10 μM
  GI%: – (Only GI% higher than 20% are shown)
[8]; 1.00E-5 Molar
  Growth Percent: 84.20%
[9]; NCI-H460, 10 μM
  GI%: – (Only GI% higher than 20% are shown)
[9]; NCI-H460, 1.00E-5 Molar
  Growth Percent: 82.06%
[10]; HCT-116, 10 μM
  GI%: 22%
[10]; HCT-116, 1.00E-5 Molar
  Growth Percent: 77.19%
[11]; HT29, 10 μM
  GI%: – (Only GI% higher than 20% are shown)
[11]; HT29, 1.00E-5 Molar
  Growth Percent: 87.37%
[12]; KM12, 10 μM
  GI%: 42%
[12]; KM12, 1.00E-5 Molar
  Growth Percent: 57.97%
[13]; SF-268, 10 μM
  GI%: 30%
[13]; SF-268, 1.00E-5 Molar
  Growth Percent: 70.34%
[14]; SF-295, 10 μM
  GI%: 42%
[14]; SF-295, 1.00E-5 Molar
  Growth Percent: 57.85%
[15]; SNB-19, 10 μM
  GI%: 29%
[15]; SNB-19, 1.00E-5 Molar
  Growth Percent: 70.92%
[16]; SNB-75, 10 μM
  GI%: – (Only GI% higher than 20% are shown)
[16]; SNB-75, 1.00E-5 Molar
  Growth Percent: 95.80%
[17]; 10 μM
  GI%: 43%
[17]; 1.00E-5 Molar
  Growth Percent: 57.05%
[18]; SK-MEL-2, 10 μM
  GI%: – (Only GI% higher than 20% are shown)
[18]; SK-MEL-2, 1.00E-5 Molar
  Growth Percent: 113.45%
[19]; OVCAR-4, 10 μM
  GI%: 26%
[19]; OVCAR-4, 1.00E-5 Molar
  Growth Percent: 74.11%
[20]; OVCAR-8, 10 μM
  GI%: – (Only GI% higher than 20% are shown)
[20]; OVCAR-8, 1.00E-5 Molar
  Growth Percent: 81.90%
[21]; SK-OV-3, 10 μM
  GI%: – (Only GI% higher than 20% are shown)
[21]; SK-OV-3, 1.00E-5 Molar
  Growth Percent: 99.63%
[22]; 786-0, 10 μM
  GI%: – (Only GI% higher than 20% are shown)
[22]; 786-0, 1.00E-5 Molar
  Growth Percent: 85.63%
[23]; 10 μM
  GI%: 24%
[23]; 1.00E-5 Molar
  Growth Percent: 75.90%
[24]; 10 μM
  GI%: 51%
[24]; 1.00E-5 Molar
  Growth Percent: 48.99%
[25]; TK-10, 10 μM
  GI%: – (Only GI% higher than 20% are shown)
[25]; TK-10, 1.00E-5 Molar
  Growth Percent: 113.38%
[26]; MCF7, 10 μM
  GI%: 37%
[26]; MCF7, 1.00E-5 Molar
  Growth Percent: 63.19%
[27]; BT-549, 10 μM
  GI%: 41%
[27]; BT-549, 1.00E-5 Molar
  Growth Percent: 59.16%
[28]; 10 μM
  GI%: 32%
[28]; 1.00E-5 Molar
  Growth Percent: 68.59%
[29]; 10 μM
  Mean GI %: 20%
[29]; 1.00E-5 Molar
  Mean Growth Percent: 80.19%
